# Assay results as given in patent publication US10632127B2, “Targeted notch pathway inhibitors” (Hoffmann-La Roche Inc., priority 2015, dated 2020).
# Read-outs that look alike come from different tables or passages of the source.
# Legend:
# [1] = Pharmacokinetic assessment in male Wistar rats (i.v.); type: in vivo, rat
# [2] = Pharmacokinetic assessment in C57BL/6 healthy wild-type mice (i.p.); type: in vivo, mouse; settings: C57BL/6 mice, 10 mg/kg i.p.
# [3] = Distribution in plasma, liver and kidney in the aristolochic acid mouse model (repeated i.p.); type: in vivo; settings: 13a 30 mg/kg b.i.d. i.p. repeated, 13 h; for concentration at 13 h: male, C57BL/6, mouse, ip, 30 mg/kg
# Method: For PK evaluation, the compounds were administered i.p to male C57BL/6 mice in suspension (gelatine/saline 7.5%/0.62% in water) using an administration volume of 4 mL/kg. Blood samples were collected in tubes containing EDTA, plasma was separated by centrifugation and stored at −80° C. Liver and kidney samples (˜100 mg aliquots) were homogenized in three volumes of water using Precellys tissue homogenization tubes (precellys.com). 25 μL of each tissue homogenate was further diluted with 25 μL blank plasma to produce the final tissue homogenate for extraction. All samples were analyzed using protein precipitation followed by LC-MS/MS analysis. Briefly, 50 μL plasma or final tissue homogenate were mixed with 50 μL 0.5M HClO4/acetonitrile 9/1 (containing 200 ng/mL internal standard bosentan). Samples were stirred and 300 μL water was added followed by centrifugation at 5600 rpm (4° C., 10 min). 10 μL supernatant was analyzed by LC/MS analysis. Calibration standards in plasma were prepared the same way. The LC column and conditions used were: Phenomenex, Polar RP, 4 μm, 50×2.1 mm at 0.4 mL/min flow rate with a 3 min gradient from 95% solvent A to 95% solvent B (Solvent A: Water/ACN/HCOOH, 90:10:0.1+10 mM NH4 formate; Solvent B: Water/ACN/HCOOH, 10:90:0.1+10 mM NH4 formate). Mass spectrometric conditions were: Thermo TSQ Vantage with positive heated electrospray ionization in MS/MS mode. Compounds mass transitions monitored were m/z 320.7 to 119.9. PK parameters for all studies were calculated using Phoenix WinNonlin Software.
# All experiments with animals were conducted in accordance with federal and local regulation at the respective study location. Kidney injury was induced by intraperitoneal (i.p). injection of aristolochic acid (AA, Sigma-Aldrich, 1×5 mg/kg) in 10 weeks old BALB/c male mice. The γ-secretase inhibitors prodrugs were diluted in NaCl 0.9% and administered i.p., starting one day before the injection of AA (day −1) and then twice daily until day 6 evening (n=5 mice/experimental group). […] The kidneys were cut in four fragments. One fragment was immediately frozen in liquid nitrogen, one fragment was included in OCT (Tissue-Tek, VWR International, Switzerland) and frozen, one fragment was frozen at −80° C. and one fragment was fixed in 4% paraformaldehyde and included in paraffin.
# To investigate potential nephroprotective effects of Notch blockade using γ-secretase inhibition and to evaluate the effects of our enzyme-targeted prodrug strategy, we used the in vivo AA mouse model of acute renal tubular damage. […]
# Plasma and tissue concentrations of administered compound (Table 6A-C) and formed free γ-secretase inhibitor (8) (Table 6A) or amine-SecrI (11a) (Table 6B-C) were determined following 8-day repeated i.p. administration at 10 mg/kg b.i.d. (Table 6A) or 30 mg/kg b.i.d. […] Numbers in parentheses represent relative amounts with the exposure of 11a in kidney arbitrarily set at each time point to 100%. […] BQL=below quantifiable limit.
smiles,measurement,setting,value
"CC(=O)N[C@@H](CCC(=O)NCCNC(=O)OCCN1C(=O)[C@@H](NC(=O)[C@@](C)(O)C(=O)NCC(F)(F)C(F)(F)F)[C@@H](C)Oc2ccc(F)cc21)C(=O)O [Compound 13a, (S)-2-acetamido-5-(2-((2-((2R,3S)-7-fluoro-3-((S)-2-hydroxy-2-methyl-3-oxo-3-(2,2,3,3,3-pentafluoropropylamino)propanamido)-2-methyl-4-oxo-3,4-dihydrobenzo[b][1,4]oxazepin-5(2H)-yl)ethoxy)carbonylamino)ethylamino)-5-oxopentanoic acid]",Liver concentration of 13a,"[1]; 13a 1.6 mg/kg i.v., 4 h",BQL
same,Plasma concentration of 13a,"[1]; 13a 1.6 mg/kg i.v., 4 h",BQL
same,Kidney concentration of 13a,"[1]; 13a 1.6 mg/kg i.v., 7 h",BQL
same,Liver concentration of 13a,"[1]; 13a 1.6 mg/kg i.v., 7 h",BQL
same,Plasma concentration of 13a,"[1]; 13a 1.6 mg/kg i.v., 7 h",BQL
same,"conversion to amine-SecrI (11a), in words","[1]; 13a i.v., 0.25 h",high conversion
same,"conversion to the linker-free γ-secretase inhibitor 8, in words",[1]; i.v.,never observed significant amounts
same,"plasma exposure, in words",[1]; i.v.,low plasma exposure
same,"stability in plasma, in words",[1]; i.v.,good stability in plasma
same,concentration at 0.25 h,"[1]; rat, kidney, iv, 13a 1.6 mg/kg i.v., 0.25 h, read-out: Kidney concentration of 13a",188 ng/g
same,concentration at 0.5 h,"[1]; rat, kidney, iv, 13a 1.6 mg/kg i.v., read-out: Kidney concentration of 13a",12.7 ng/g
same,concentration at 4 h,"[1]; rat, kidney, iv, 13a 1.6 mg/kg i.v., 4 h",16.6 ng/g
same,concentration at 0.25 h,"[1]; rat, liver, iv, 13a 1.6 mg/kg i.v., 0.25 h, read-out: Liver concentration of 13a",400 ng/g
same,concentration at 0.5 h,"[1]; rat, liver, iv, 13a 1.6 mg/kg i.v., read-out: Liver concentration of 13a",33.4 ng/g
same,concentration at 0.25 h,"[1]; rat, plasma, iv, 13a 1.6 mg/kg i.v., 0.25 h, read-out: Plasma concentration of 13a",295 ng/mL
same,concentration at 0.5 h,"[1]; rat, plasma, iv, 13a 1.6 mg/kg i.v., read-out: Plasma concentration of 13a",11.2 ng/mL
same,"conversion to amine-SecrI (11a), in words",[2],high conversion
same,"plasma exposure, in words",[2],low plasma exposure
same,Plasma concentration of administered compound,[2]; 4 h,BQL
same,Kidney concentration of administered compound,[2]; 7 h,BQL
same,Plasma concentration of administered compound,[2]; 7 h,BQL
same,concentration at 0.5 h,"[2]; male, mouse, kidney, ip, read-out: Kidney concentration of administered compound",1030 ng/g
same,concentration at 4 h,"[2]; male, mouse, kidney, ip, 4 h, read-out: Kidney concentration of administered compound",16.6 ng/g
same,concentration at 0.5 h,"[2]; male, mouse, liver, ip, read-out: Liver concentration of administered compound",3570 ng/g
same,concentration at 4 h,"[2]; male, mouse, liver, ip, 4 h, read-out: Liver concentration of administered compound",625 ng/g
same,concentration at 7 h,"[2]; male, mouse, liver, ip, 7 h, read-out: Liver concentration of administered compound",22.3 ng/g
same,concentration at 0.5 h,"[2]; male, mouse, plasma, ip, read-out: Plasma concentration of administered compound",4.88 ng/mL
same,Plasma concentration of 13a,[3]; AA-exposed mice,BQL
same,concentration at 13 h,"[3]; kidney, AA-exposed mice, read-out: Kidney concentration of 13a",23 ng/g
same,concentration at 13 h,"[3]; kidney, mice, without AA (Table 6B), read-out: Kidney concentration of 13a",11 ng/g
same,concentration at 13 h,"[3]; liver, AA-exposed mice, read-out: Liver concentration of 13a",155 ng/g
same,concentration at 13 h,"[3]; liver, mice, without AA (Table 6B), read-out: Liver concentration of 13a",19 ng/g
same,concentration at 13 h,"[3]; plasma, mice, without AA (Table 6B), read-out: Plasma concentration of 13a",6 ng/mL
